# Results as given in US20080171059A1, “METHODS AND COMPOSITIONS FOR INCREASED PRIMING OF T-CELLS THROUGH CROSS-PRESENTATION OF EXOGENOUS ANTIGENS” (priority 2006, published 2008).
# Assays:
# [1] = tested on: CD8+ T cell line specifically recognizing the N9V/HLA-A*0201 complex; experiment: Cross-presentation assay: yeast-fed monocyte-derived DCs stimulate IFNγ secretion in co-cultured N9V-specific CD8+ T cells; format: cell-based, human
# Method: An interferon gamma (IFNY) secretion cell capture FACS assay was performed on the T cells to quantify the percentage of cells that had been activated as a result of cross-presentation by the DCs.
# The monocytes were aliquoted into vials and cryopreserved in 90% fetal bovine serum (FBS), 10% DMSO. […] Unless otherwise indicated, media components were from Hyclone (Logan, Utah); low endotoxin products were chosen where available. 4-5×10^6 monocytes were cultured per well of a 6-well plate in 2.5 ml C10 medium supplemented with 1000 U/ml each of interleukin-4 and granulocyte-macrophage colony stimulating factor (C10GF; cytokines from R & D Systems, Minneapolis, Minn.). After 2 and 4 days of culture, each well was topped up with 0.5 ml C10GF; after 6 days of culture, floating and loosely adherent monocyte-derived DCs were harvested by gentle resuspension.
# Cross-presentation Assay After 6 days of differentiation, monocyte-derived DCs were seeded in 96-well round bottom plates at 1 or 2×10^5 cells in 200 μl C10GF per well. Appropriate numbers of yeast cells (measured by optical density at 600 nm with 10D≈10^7/ml) were rendered non-viable by UV-irradiation (2×1000 J/m^2 in a Stratalinker, Stratagene, La Jolla, Calif.), pelleted by centrifugation and added to the DCs. For inhibition experiments, DCs were pre-incubated with lactacystin (5 μM; Calbiochem, San Diego, Calif.) or chloroquine (25 μM) for one hour before yeast samples were introduced. […] Following 4 h of co-culture, the contents of each well were transferred to tubes for labeling with Miltenyi's IFNY secretion assay kit (Bergisch Gladbach, Germany) according to the recommended protocol. […] The percentage of CD8^+ cells that were IFNY+ was determined by flow cytometry (Coulter Epics XL, Fullerton, Calif. or BD FACSCalibur). The cut-off PE fluorescence was set for each experiment such that about 0.5% of T cells were IFNY+ in a negative control sample (no yeast or peptide).
# Surface Display Antigen Dose Normalization In experiments where different linkers were used to surface-display antigen, several cultures of each yeast sample were induced, and cultures with mean antigen levels within 10% of each other were selected to minimize the effect of variable antigen dose on cross-presentation. […] Therefore, each yeast sample was mixed with the appropriate amount of EBY100 yeast to normalize the antigen dose while maintaining the 20:1 ratio of yeast to DCs.
# [2] = molecular target: Cathepsin S (Homo sapiens, UniProt P25774); experiment: Cleavage of antigen sequences by Cathepsin S; format: biochemical; conditions: cleavage positions MQ|AE and NLVPMVA|TV
# Sequence of Cathepsin S (P25774 115-331): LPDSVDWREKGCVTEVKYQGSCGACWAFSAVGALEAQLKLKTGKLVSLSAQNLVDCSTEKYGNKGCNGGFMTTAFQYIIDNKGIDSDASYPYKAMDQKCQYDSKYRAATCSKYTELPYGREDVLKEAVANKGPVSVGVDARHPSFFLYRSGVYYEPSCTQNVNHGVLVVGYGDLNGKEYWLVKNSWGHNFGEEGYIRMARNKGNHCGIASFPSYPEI
molecule,measurement,setting,value
CC(=O)N[C@@H](CSC(=O)[C@]1([C@@H](O)C(C)C)NC(=O)[C@H](C)[C@@H]1O)C(=O)O [lactacystin],Effect of inhibitor on cross-presentation of surface-displayed antigen,"[1]; EBYN9V yeast 20:1, lactacystin 5 μM or chloroquine 25 μM added one hour before yeast",strongly inhibited
same,"Effect of inhibitor on cross-presentation of strains with deleted, C1 and (C1)4 linkers","[1]; all three integrated strains, lactacystin 5 μM or chloroquine 25 μM",inhibited
same,Effect of inhibitor on cross-presentation of intracellular antigen,"[1]; yeast expressing Aga2p-N9V intracellularly 20:1, lactacystin 5 μM or chloroquine 25 μM",inhibited
"NLVPMVATV [cytomegalovirus epitope, HLA-A*0201-restricted peptide derived from CMV phosphoprotein pp 65]",Cleavage by Cathepsin S,[2],cleaved rapidly
"ARNLVPMVATVQGQN [15-mer extended CMV pp 65 peptide containing N9V, positive control]",Percentage of IFNγ+ T cells,"[1]; positive control, 1 μM extended peptide",45-70%
